Where two headings read alike, the source gives them in different places.
Assays:
[1] = tested on: PC3-PIP/flu tumor-bearing mice; assay: Biodistribution studies; assay type: in vivo, BALB/c nude mice; conditions: 48 h p.i.
[2] = tested on: PSMA-positive PC-3 PIP tumor xenografts; assay: Therapy study in PC-3 PIP tumor-bearing mice; assay type: in vivo, BALB/c nude mice; conditions: 10 MBq
Description: Five days after subcutaneous inoculation of four groups of mice with either PC-3 PIP or PC-3 flu tumor cells on the right shoulder (4 × 10^6 cells in 100 μL HBSS), the mice were intravenously injected with either vehicle only (saline with 0.05% BSA, n = 6 and n = 4, respectively) or with 30 kBq [^225Ac]Ac-SibuDAB (1 nmol per mouse; n = 4 per group) diluted in vehicle (Table 1).
After tumor cell inoculation, mice bearing PC-3 PIP tumor xenografts were intravenously injected with vehicle only (n = 6) or with [^225Ac]Ac-SibuDAB or [^225Ac]Ac-PSMA-617, respectively, applied at 5 kBq or 10 kBq (1 nmol per mouse; n = 6 per group; Table 1). The control group consisted of mice from several studies (n = 12 mice) and the data from this group were published previously.
After administration of the radioligands, the mice were monitored over 8 weeks using the same measures as previously published by Umbricht et al.. The relative body mass was defined as [BMx/BM0], where BMx is the body mass in grams at a given Day x and BM0 is the body mass in grams at Day 0. The tumor dimension was determined by measuring the longest tumor axis (L) and its perpendicular axis (W) with a digital caliper. The tumor volume (V) was calculated according to the equation [V = 0.5 × (LW^2)]. The relative tumor volume was defined as [TVx/TV0], where TVx is the tumor volume in mm^3 at a given Day x, and TV0 is the tumor volume in mm^3 at Day 0. Endpoint criteria that required euthanasia were defined as (i) body mass loss of >15%, (ii) a tumor volume of >800 mm^3, (iii) a combination of body mass loss of >10% and a tumor volume of >700 mm^3 or, (iv) signs of unease and pain or a combination thereof using a scoring system as previously reported. The median survival of mice of each group was assessed with Kaplan–Meier curves. Potential early side effects for mice that survived until study end were determined based on blood chemistry and organ-to-brain mass ratios on Day 56 by comparison to values obtained from an additional group of therapy-naïve mice (n = 4) without tumors but of the same age (Supplementary Material: Section S9).
Table S10. Biodistribution data and tumor-to-background ratios obtained in PC3-PIP/flu tumor-bearing mice 48 h after injection of [225Ac]Ac-SibuDAB, [177Lu]Lu-SibuDAB, [225Ac]Ac-PSMA-617 or [177Lu]Lu-PSMA-617. Decay-corrected data of accumulated activity are shown as [% IA/g]-values, representing the average ± SD.
Biodistribution data at 48 h p.i.
1 Data of [177Lu]Lu-PSMA-617 were previously published by Benešová et al., Mol Pharm 2018 [2]; Copyright 2018, American Chemical Society.
Purpose: In order to determine the therapeutic efficacy of [225Ac]Ac-SibuDAB in com-parison to [225Ac]Ac-PSMA-617 as well as the 177Lu-labeled counterparts, therapy studies were conducted in PC-3 PIP xenograft-bearing BALB/c nude mice.
Methods: The methods of the therapy study to assess the therapeutic efficacy of [225Ac]Ac-SibuDAB are reported in the main manuscript. An additional group of mice was treated with 10 MBq (1 nmol) [177Lu]Lu-SibuDAB under the same experimental condi-tions. Data previously acquired by our group for mice treated with 5 MBq [177Lu]Lu-SibuDAB were published by Borgna & Deberle et al. and data of mice treated with 5 MBq or 10 MBq [177Lu]Lu-PSMA-617 were previously published by Tschan et al. and Umbricht et al., respectively.
Results: The assessment of the PSMA-specific therapeutic effect of [225Ac]Ac-SibuDAB as well as the comparison to [225Ac]Ac-PSMA-617 are described in the main ar-ticle. The body mass of effectively treated mice, in which the tumor disappeared entirely […]
tumor-bearing mice that were treated with only vehicle as well as for some mice that were treated with 5 kBq or 10 kBq [225Ac]Ac-PSMA-617 and experienced a relapse in tumor

[3] = cited from earlier work
[4] = tested on: PSMA-positive PC-3 PIP cells; conditions: 4 h incubation; ref Borgna & Deberle et al., Mol Pharm 2022; cited from earlier work
[5] = molecular target: T1, PSMA (Homo sapiens, UniProt Q04609); conditions: ref Borgna & Deberle et al., Mol Pharm 2022; cited from earlier work
T1 construct: expressed in transfected cells; host or cells: PC-3 PIP prostate cancer cells (transduced to express PSMA), provided by Prof; Dr. Martin Pomper, Johns Hopkins University

[6] = tested on: PC3-PIP/flu tumor-bearing mice; conditions: ref Borgna & Deberle et al., Mol Pharm 2022, cited from earlier work
[7] = tested on: PSMA-positive PC-3 PIP tumor xenografts; parameters: method as in Borgna & Deberle et al., Mol Pharm 2022; conditions: 5 MBq, ref Borgna & Deberle et al., Mol Pharm 2022; cited from earlier work

T1 sequence (Q04609 whole entry): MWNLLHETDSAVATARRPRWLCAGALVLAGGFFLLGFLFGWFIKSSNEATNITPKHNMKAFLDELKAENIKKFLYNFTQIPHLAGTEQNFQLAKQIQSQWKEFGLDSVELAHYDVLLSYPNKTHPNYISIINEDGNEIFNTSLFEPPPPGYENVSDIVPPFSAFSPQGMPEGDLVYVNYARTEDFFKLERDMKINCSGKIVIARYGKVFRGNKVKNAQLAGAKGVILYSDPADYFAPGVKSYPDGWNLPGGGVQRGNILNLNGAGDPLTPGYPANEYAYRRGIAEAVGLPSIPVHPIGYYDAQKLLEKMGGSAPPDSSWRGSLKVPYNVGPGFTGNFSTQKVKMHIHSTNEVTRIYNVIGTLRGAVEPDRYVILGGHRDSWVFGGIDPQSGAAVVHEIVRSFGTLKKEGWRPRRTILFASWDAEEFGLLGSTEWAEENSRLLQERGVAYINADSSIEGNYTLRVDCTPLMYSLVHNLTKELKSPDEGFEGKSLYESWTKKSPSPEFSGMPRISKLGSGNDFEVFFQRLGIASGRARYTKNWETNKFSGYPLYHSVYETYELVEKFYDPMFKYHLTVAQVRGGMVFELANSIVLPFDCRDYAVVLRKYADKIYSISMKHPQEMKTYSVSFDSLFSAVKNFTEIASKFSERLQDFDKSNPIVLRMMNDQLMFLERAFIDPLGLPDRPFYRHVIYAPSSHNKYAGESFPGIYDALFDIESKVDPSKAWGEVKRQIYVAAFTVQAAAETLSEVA

CC(C)Cc1ccc(C(C)C(=O)NC(CCN)C(=O)NCCCCC(NC(=O)CN2CCN(CC(=O)[O-])CCN(CC(=O)[O-])CCN(CC(=O)[O-])CC2)C(=O)NCC2CCC(C(=O)NC(Cc3ccc4ccccc4c3)C(=O)NCCCCC(NC(=O)NC(CCC(=O)O)C(=O)O)C(=O)O)CC2)cc1.[177Lu+3] (stereo not shown) [[^177Lu]Lu-SibuDAB]
Blood, accumulated activity [1]: 0.27 ± 0.04 % IA/g | Bone, accumulated activity [1]: ≤ 0.10 % IA/g | Heart, accumulated activity [1]: 0.14 ± 0.02 % IA/g | Intestines, accumulated activity [1]: 0.10 ± 0.03 % IA/g | Kidneys, accumulated activity [1]: 3.5 ± 0.7 % IA/g | Liver, accumulated activity [1]: 0.44 ± 0.06 % IA/g | Lung, accumulated activity [1]: 0.33 ± 0.07 % IA/g | Muscle, accumulated activity [1]: 0.07 ± 0.02 % IA/g | PC-3 PIP tumor, accumulated activity [1]: 69 ± 12 % IA/g | PC-3 flu tumor, accumulated activity [1]: 0.30 ± 0.07 % IA/g | Salivary glands, accumulated activity [1]: 0.18 ± 0.05 % IA/g | Spleen, accumulated activity [1]: 0.43 ± 0.10 % IA/g | Stomach, accumulated activity [1]: 0.12 ± 0.06 % IA/g | Tumor-to-blood ratio [1]: 252 ± 24 | Tumor-to-kidney ratio [1]: 20 ± 2 | Tumor-to-liver ratio [1]: 157 ± 14 | mice whose tumor xenografts disappeared completely without relapse until Day 56 [2]: five out of six | start of tumor regrowth in the other mice [2]: ~ 7 weeks | mice whose tumor xenografts disappeared completely without relapse until Day 56 ([2]; listed as [177Lu]Lu-SibuDAB): five out | logD value [3]: −2.3 ± 0.1 | Cell uptake [4]: 53 ± 1% | Internalized fraction [4]: 15 ± 2% | Kd [5]: 27 nM | Blood, accumulated activity ([6]; 1 h p.i.): 17 ± 2 % IA/g | Bone, accumulated activity ([6]; 1 h p.i.): 2.1 ± 0.3 % IA/g | Heart, accumulated activity ([6]; 1 h p.i.): 5.3 ± 0.8 % IA/g | Intestines, accumulated activity ([6]; 1 h p.i.): 1.8 ± 0.3 % IA/g | Kidneys, accumulated activity ([6]; 1 h p.i.): 22 ± 5 % IA/g | Liver, accumulated activity ([6]; 1 h p.i.): 3.5 ± 0.6 % IA/g | Lung, accumulated activity ([6]; 1 h p.i.): 12 ± 2 % IA/g | Muscle, accumulated activity ([6]; 1 h p.i.): 1.9 ± 0.3 % IA/g | PC-3 PIP tumor, accumulated activity ([6]; 1 h p.i.): 38 ± 7 % IA/g | PC-3 flu tumor, accumulated activity ([6]; 1 h p.i.): 2.7 ± 0.4 % IA/g | Salivary glands, accumulated activity ([6]; 1 h p.i.): 3.5 ± 0.4 % IA/g | Spleen, accumulated activity ([6]; 1 h p.i.): 3.0 ± 0.4 % IA/g | Stomach, accumulated activity ([6]; 1 h p.i.): 1.5 ± 0.4 % IA/g | Tumor-to-blood ratio ([6]; 1 h p.i.): 2.3 ± 0.5 | Tumor-to-kidney ratio ([6]; 1 h p.i.): 1.7 ± 0.3 | Tumor-to-liver ratio ([6]; 1 h p.i.): 11 ± 2 | Blood, accumulated activity ([6]; 4 h p.i.): 2.9 ± 1.9 % IA/g | Bone, accumulated activity ([6]; 4 h p.i.): 0.49 ± 0.27 % IA/g | Heart, accumulated activity ([6]; 4 h p.i.): 1.1 ± 0.7 % IA/g | Intestines, accumulated activity ([6]; 4 h p.i.): 0.46 ± 0.23 % IA/g | Kidneys, accumulated activity ([6]; 4 h p.i.): 12 ± 3 % IA/g | Liver, accumulated activity ([6]; 4 h p.i.): 1.3 ± 0.5 % IA/g | Lung, accumulated activity ([6]; 4 h p.i.): 3.1 ± 2.8 % IA/g | Muscle, accumulated activity ([6]; 4 h p.i.): 0.39 ± 0.22 % IA/g | PC-3 PIP tumor, accumulated activity ([6]; 4 h p.i.): 66 ± 11 % IA/g | PC-3 flu tumor, accumulated activity ([6]; 4 h p.i.): 0.95 ± 0.71 % IA/g | Salivary glands, accumulated activity ([6]; 4 h p.i.): 0.82 ± 0.43 % IA/g | Spleen, accumulated activity ([6]; 4 h p.i.): 1.1 ± 0.6 % IA/g | Stomach, accumulated activity ([6]; 4 h p.i.): 0.49 ± 0.29 % IA/g | Tumor-to-blood ratio ([6]; 4 h p.i.): 49 ± 51 | Tumor-to-kidney ratio ([6]; 4 h p.i.): 5.5 ± 1.5 | Tumor-to-liver ratio ([6]; 4 h p.i.): 61 ± 29 | Blood, accumulated activity ([6]; 24 h p.i.): 0.26 ± 0.08 % IA/g | Bone, accumulated activity ([6]; 24 h p.i.): 0.11 ± 0.04 % IA/g | Heart, accumulated activity ([6]; 24 h p.i.): 0.15 ± 0.05 % IA/g | Intestines, accumulated activity ([6]; 24 h p.i.): 0.13 ± 0.06 % IA/g | Kidneys, accumulated activity ([6]; 24 h p.i.): 4.3 ± 1.0 % IA/g | Liver, accumulated activity ([6]; 24 h p.i.): 0.54 ± 0.18 % IA/g | Lung, accumulated activity ([6]; 24 h p.i.): 0.31 ± 0.10 % IA/g | Muscle, accumulated activity ([6]; 24 h p.i.): ≤ 0.10 % IA/g | PC-3 PIP tumor, accumulated activity ([6]; 24 h p.i.): 62 ± 18 % IA/g | PC-3 flu tumor, accumulated activity ([6]; 24 h p.i.): 0.38 ± 0.09 % IA/g | Salivary glands, accumulated activity ([6]; 24 h p.i.): 0.18 ± 0.05 % IA/g | Spleen, accumulated activity ([6]; 24 h p.i.): 0.40 ± 0.13 % IA/g | Stomach, accumulated activity ([6]; 24 h p.i.): 0.12 ± 0.06 % IA/g | Tumor-to-blood ratio ([6]; 24 h p.i.): 247 ± 34 | Tumor-to-kidney ratio ([6]; 24 h p.i.): 14 ± 1 | Tumor-to-liver ratio ([6]; 24 h p.i.): 117 ± 14 | mice whose tumor xenografts disappeared completely without relapse until Day 56 [7]: two out of six | start of tumor regrowth in the other mice [7]: ~ 4 weeks

Source: article PMC9688344, “[^225Ac]Ac-SibuDAB for Targeted Alpha Therapy of Prostate Cancer: Preclinical Evaluation and Comparison with [^225Ac]Ac-PSMA-617” (Cancers, 2022)
